Results taken from article PMC5293122, “Linalool, a Piper aduncum essential oil component, has selective activity against Trypanosoma cruzi trypomastigote forms at 4°C” (Memórias do Instituto Oswaldo Cruz, 2017).
Values after ≈ are worked out from the molar mass of the structure shown. Values joined by “and” are separate entries in the source; they are usually repeats but may differ in a detail not shown here. Equal entries are not always repeated. “Also recorded” adds a separate entry of the source. Where two headings read alike, the source gives them in different places.

Tests used:
[1] = system: Trypanosoma cruzi cell-derived trypomastigotes; test: Activity on cell-derived trypomastigotes at 4 °C, 24 h, MTT assay; assay type: cell-based, T. cruzi clone Dm28c; details: for Selectivity index (SI) - Vero cells: Table II, CC50 Vero cells / IC50 cell-derived trypomastigotes (4 °C); for IC50: Trypanosoma cruzi
[2] = Cytotoxicity on Vero cells, MTT assay; assay type: cell-based; details: African green monkey, Vero cells (ATCC CCL-81), Vero cells
Procedure: MTT assay - After drug treatments, MTT solution (10 mg/mL in PBS) was added to each well for a final concentration of 2.5 mg/mL (or 1 mg/mL for trypomastigotes). Plates were incubated for 3 h at 28 °C in the dark, centrifuged for 10 min at 475 g and the supernatant was removed (by quick plate reversal). Then, 20 µL SDS was added to each well, followed by incubation for 1 h at 28 °C, after which 80 µL DMSO was added to each well and incubated for a further 1 h at 28 °C. Finally, the residual material was removed with the aid of a toothpick, and sample absorbance (at 550 nm) was read in an EL800 microplate reader (Biotek, Winooski, VT, USA). Dose-response curves were produced using the CompuSyn software, which was also used to calculate IC50/24 values.
Cytotoxicity - Vero cells were seeded in 96-well plates (2 x 10^4 cells/well) with RPMI-1640 medium and cultivated for 24 h at 37 °C (5% CO2). […] Then, plates were subjected to the MTT assay as described above (see “MTT assay”), and MTT data were used to calculate 50% cytotoxicity (CC50/24 h) values. Plates were examined in an inverted microscope every 12 h, to evaluate monolayer integrity (confluence and adhesion).

[3] = Cytotoxicity on red blood cells at 4 °C; assay type: cell-based, human; details: red blood cells (erythrocytes); human RBCs, 4 °C
Procedure: (§1) To analyse cytotoxicity on red blood cells (RBCs) at 4 °C, human erythrocytes were obtained from 10-mL blood samples (O+), from a healthy volunteer donor, as previously described ([Izumi et al. 2012]). After collection, blood was […] and then washed with a sterile ‘saline-glucose’ solution (0.85% NaCl/5% glucose). The final pellet was diluted in saline-glucose and centrifuged for 5 min at 1400 g. The supernatant was discarded and the pellet of RBCs was diluted in saline-glucose, for a final concentration of 6%. […] Negative control samples represented untreated RBCs diluted in saline-glucose. After treatment, plates were centrifuged at 1027 g for 2 min, and 100 µL of supernatant from each well were transferred to a new plate and analysed (at 550 nm) in an EL800 microplate reader (Biotek, Winooski, VT, USA). Cytotoxicity (CC50) values were calculated using Excel, and selectivity index (SI) values were calculated as the ratio between the CC50/24 h (for Vero cells or RBCs) and IC50/24 h values.

red blood cells (RBCs) = test: Cytotoxicity on red blood cells at 4 °C; assay type: cell-based, human; details: CC50 RBCs (4 °C) / IC50 cell-derived trypomastigotes (4 °C)
Procedure: as §1

[4] = system: T. cruzi blood trypomastigotes (Y strain); design: method as in Santoro et al. 2007b; details: ref Santoro et al. 2007b; cited from earlier work
Vero cells = test: Cytotoxicity on Vero cells, MTT assay; assay type: cell-based; details: 1 µg/mL, 24 h; not shown
[5] = system: Trypanosoma cruzi cell-derived trypomastigotes; test: PaEO activity on cell-derived trypomastigotes at 28 °C, 24 h, cell counting; assay type: cell-based, T. cruzi clone Dm28c
Procedure: To obtain cell-derived trypomastigotes, Vero cells were incubated with cell-derived trypomastigotes (1:10 ratio of cells to parasites) in 75 cm^2 culture flasks containing 8 mL DMEM. After 4 h of interaction, non-internalised parasites were removed by rinsing with phosphate-buffered saline (PBS), new medium was added, and then changed to fresh medium every 24 h. After 96 h of infection, trypomastigotes released into the supernatant were collected by centrifugation at 3000 g for 10 min.
PaEO activity assays with cell-derived trypomastigotes were performed at 28 °C and 4 °C. […]

[6] = system: Trypanosoma cruzi metacyclic trypomastigotes; test: PaEO activity on metacyclic trypomastigotes at 28 °C, 24 h, cell counting; assay type: cell-based, T. cruzi clone Dm28c
Procedure: (§2) Parasites - In this work, we used the T. cruzi clone Dm28c. Epimastigote forms were kept at 28 °C in LIT medium supplemented with 10% inactivated FCS, with passages at every three days. For the experiments, parasites obtained from 72-h cultures were used.
To obtain metacyclic trypomastigotes, culture epimastigotes in late logarithmic growth phase (five days) were subjected to nutritional stress as described previously ([Contreras et al. 1985]). […]
Single drug activity assays on T. cruzi developmental forms - All experiments were performed in biological and technical triplicates. […] The absorbance of untreated cells in culture media containing 0.5% DMSO (control) was used as 100% cell viability, and the percentage of dead cells in each treatment was estimated by comparison with the untreated control.
For all assays, IC50/24 h values (based on cell counting, MTT data or infection index values) and dose-response curves were generated using the CompuSyn software (ComboSyn Inc., Paramus, NJ, USA), and statistical analysis was performed in Excel. For all assays, the fraction of affected cells (Fa) was calculated relative to the untreated control (treated/untreated ratio). […]

[7] = system: Trypanosoma cruzi epimastigotes; test: PaEO activity on epimastigotes at 28 °C, 24 h, MTT assay; assay type: cell-based, T. cruzi clone Dm28c
Procedure: as §2
(§3) Single drug activity assays on T. cruzi developmental forms - All experiments were performed in biological and technical triplicates. Incubations were performed for 24 h in all bioassays. The absorbance of untreated cells in culture media containing 0.5% DMSO (control) was used as 100% cell viability, and the percentage of dead cells in each treatment was estimated by comparison with the untreated control.
(§4) For all assays, IC50/24 h values (based on cell counting, MTT data or infection index values) and dose-response curves were generated using the CompuSyn software (ComboSyn Inc., Paramus, NJ, USA), and statistical analysis was performed in Excel. For all assays, the fraction of affected cells (Fa) was calculated relative to the untreated control (treated/untreated ratio).
To test the activity of PaEO on epimastigote forms, these cells were seeded into 96-well plates (5 x 10^6 cells/well) in LIT medium, and treated for 24 h at 28 °C with PaEO at the final concentrations of 9, 18, 37, 75, 150 and 300 µg/mL. […] Cell viability was assessed by the MTT assay (see “MTT assay”). […]

[8] = system: Trypanosoma cruzi intracellular amastigotes; test: PaEO activity against intracellular amastigotes in Vero cells, 37 °C, 24 h, infection index; assay type: cell-based; details: for Amastigotes per cell / Infected cells (%): Vero cells; for Infection index (II): II = % infected cells x amastigotes per cell
Procedure: Vero cells - Vero cells (ATCC CCL-81) were grown in RPMI-1640 medium with L-glutamine (Sigma Aldrich, St. Louis, MO, USA), supplemented with 5% fetal calf serum (FCS; Cultilab, Campinas, SP, Brazil), at 37 °C, and in a humidified 5% CO2 atmosphere. For seeding, cell monolayers were washed twice with PBS (pH 7.2), trypsinized and collected by centrifugation at 100 g for 2 min.
as §2, §3, §4
To test PaEO activity against intracellular amastigotes, Vero cells were seeded in 24-well plates (2 x 10^4 cells/well) in DMEM (Sigma-Aldrich), and allowed to adhere for 24 h. Then, cell-derived trypomastigotes were added to each well (1:10 ratio of cells to parasites), incubated for 3 h, and non-internalised parasites were removed by washing with PBS. Infected cultures were incubated for 24 h (at 37 °C, 5% CO2), and then the culture medium was replaced with RPMI-1640 containing PaEO or BZ at final concentrations between 1 and 100 µg/mL (total volume of 1 mL/well), and plates were incubated for 24 h, at 37 °C (5% CO2). Treated cells were fixed with methanol, stained with Giemsa, and the inhibitory effect on intracellular amastigotes was estimated by counting (a) the number of infected cells, and (b) the number of amastigotes per cell, in 100 cells/wells, from random light microscopy images.

Chagas disease = details: cited from earlier work; for Treatment efficacy: ref Rassi et al. 2009
[9] = 37 °C, read-out: Vero cells CC50/24 h
[10] = Trypanosoma cruzi, 24 h, read-out: IC50/24 h

## C=CC(C)(O)CCC=C(C)C (centres unmarked) [Linalool, linalool]
[1]
  Selectivity index (SI) - Vero cells: 2.7
[1]; listed as linalool
  Selectivity index (SI) - Vero cells: 2.69
[1]; cell-derived trypomastigotes, 4 °C, 24 h, read-out: IC50/24 h
  IC50: 0.306 µg/mL (≈ 1.98 µM)
[1]; cell-derived trypomastigotes, 4 °C, 24 h, read-out: T. cruzi IC50/24 h
  IC50: 0.31 µg/mL (≈ 2.01 µM)
[1]; cell-derived trypomastigotes, 4 °C
  Times more efficient than gentian violet: approximately 80,000 times
[1]; linalool at 4 °C vs BZ at 28 °C, cell-derived trypomastigotes
  Times more effective than BZ at 28ºC: approximately 52 times
[2]; [9]
  CC50 at 24 h: 0.87 µg/mL (≈ 5.64 µM)
[2]; b44 prints at 4 °C, read-out: CC50/24 h
  CC50 at 24 h: 0.824 µg/mL (≈ 5.34 µM)
[3]
  CC50 at 24 h: 7340 µg/mL (≈ 47600 µM)
Red blood cells (RBCs)
  Selectivity index (SI) - RBCs: 23,990
[4]
  IC50/24 h: 264 µg/mL (≈ 1710 µM)

## CN(C)c1ccc(C(=C2C=CC(=[N+](C)C)C=C2)c2ccc(N(C)C)cc2)cc1 [Gentian Violet, gentian violet]
[1]
  Selectivity index (SI) - Vero cells: 2.9
Red blood cells (RBCs)
  Selectivity index (SI) - RBCs: > 2.8

## C=CC(C)(O)CCC=C(C)CCC=C(C)C (mixture of isomers) [nerolidol]
[1]; 100 ng/mL to 1 µg/mL, 4 °C, 24 h, data not shown
  Trypanocidal activity (light microscopy and MTT): no appreciable trypanocidal activity; also recorded: failed to affect significantly
Vero cells
  Integrity of Vero cell monolayers: did not affect the integrity; also recorded: remained intact

## O=C(Cn1ccnc1[N+](=O)[O-])NCc1ccccc1 [BZ, Benznidazole]
[5]; CC50 on Vero cells / IC50, cell-derived trypomastigotes 28 °C
  Selectivity index (SI): 63.4
[5]; [10]
  IC50: 16.1 µg/mL (≈ 61.9 µM)
[6]; CC50 on Vero cells / IC50, metacyclic trypomastigotes 28 °C
  Selectivity index (SI): 3,646.4
[6]; [10]
  IC50: 0.3 µg/mL (≈ 1.15 µM)
[7]; CC50 on Vero cells / IC50, epimastigotes 28 °C
  Selectivity index (SI): 69.4
[7]; [10]
  IC50: 45 µM and 14.7 µg/mL
[8]; 10 µg/mL, 24 h
  II decrease: 81.3%
  Amastigotes per cell: 2.5
  Infected cells (%): 74.9%
  Infection index (II): 187.2
[8]; 50 µg/mL, 24 h
  II decrease: 99.9%
  Amastigotes per cell: 0.9
  Infected cells (%): 0.4%
  Infection index (II): 0.3
[8]; CC50 on Vero cells / IC50, amastigotes 37 °C
  Selectivity index (SI): 1,276.2
[8]; Trypanosoma cruzi, Vero, 24 h, read-out: IC50/24 h
  IC50: 0.8 µg/mL (≈ 3.07 µM)
[2]; [9]
  CC50 at 24 h: > 1000 µg/mL
Chagas disease; acute phase of the disease
  Treatment efficacy: approximately 80%
Chagas disease; chronic phase of the disease
  Treatment efficacy: ~20%
Chagas disease; ref Bern 2011
  Treatment discontinuation due to side effects: 7-13 % of cases
